Where two headings read alike, the source gives them in different places.

This is an account of results in article PMC10814725, “In Vitro Anti-Inflammatory Study of Limonoids Isolated from Chisocheton Plants” (Current Issues in Molecular Biology, 2024).

Data set [1] deals with TLR4-dependent NF-kB activation in HEK-Blue hTLR4 cells. Kind of data set: SEAP reporter gene assay, antagonist effect on LPS-stimulated TLR4-dependent NF-κB activation. It counts as cell-based, human. Particulars: 20 µM, LPS 10 ng/mL, 18 h, vs. LPS stimulated-only group. On the procedure:
The SEAP Reporter Gene Assay was conducted as previously described. HEK-Blue^TM hTLR4 cells (2 × 10^4 cells/well) were seeded in 96-well plates and were serum-starved for 24 h at 37 °C in a 5% carbon dioxide atmosphere. After incubation, the culture medium was aspirated, and the cells were washed with saline. High-glucose D-MEM supplemented with 0.1% FBS and 1% penicillin-streptomycin was added and treated with or without the 17 limonoids at a concentration of 20 µM for 1 h, followed by LPS addition at a concentration of 10 ng/mL for the LPS-stimulated group. After incubation at 37 °C for 18 h, the supernatants were collected and PNPP in PBS solution (0.8 mM, 100 μL) was added, followed by 4 h of shading at 25 °C. The optical density (OD) of the samples was measured at 405 nm using a microplate reader (BioTek Cytation 5 Cell Imaging Multimode Reader, Agilent Technologies, Santa Clara, CA, USA).
A general note: A reporter such as luciferase makes a cellular process visible.

The subject of a further data set is IL-6. Kind of data set: ELISA of IL-6 production in LPS-stimulated THP-1 cells. It counts as cell-based, human. Particulars: for Effect on IL-6 level: 10 µM, compared to LPS (+)-stimulated group, THP-1 cells; for IC50: Homo sapiens, THP-1, 18 h, LPS-stimulated (10 ng/mL) THP-1 cells, 1, 5, 10, 20 µM, 18 h. In general terms: In an ELISA, binding on a coated surface is turned into a signal by an enzyme label.

A short description of data set [2]: Cell viability by CCK-8, HEK-Blue hTLR4 cells. It counts as cell-based. Conditions: human. Put shortly: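 CCK-8 read-out. HEK-Blue hTLR4 cells (2 × 10^4/well) serum-starved 24 h, then in high-glucose D-MEM with 0.1% FBS pretreated ±20 µM limonoids for 1 h before 10 ng/mL LPS; CCK-8 (10% v/v) added after 18 h and incubated 1 h at 37 °C. RAW264.7 viability measured likewise with CCK-8.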

Data set [3] in a line: Cell viability by CCK-8, THP-1 cells. The class given is cell-based. Particulars: human, PMA-differentiated THP-1 cells; for CC50 at 18 h: concentration causing 50% cytotoxicity against THP-1 cells. Put shortly:
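THP-1 cells seeded at 5 × 10^4 cells/well in 96-well plates were differentiated with 0.5 μM PMA for 24 h, washed with PBS, and held overnight at 37 °C in RPMI-1640 containing 0.1% FBS and 1% penicillin–streptomycin. After 1 h compound pretreatment and 18 h further incubation, 10% (v/v) CCK-8 was added for 1 h. Absorbance was read at 405 nm, and background-corrected viability was expressed relative to untreated control cells.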

Setting [4] is: Viability Cell (%) HEK-Blue hTLR4 LPS-Induced (10 ng/mL).
[5] abbreviates: Viability Cell (%) HEK-Blue hTLR4 Without LPS.
[6] abbreviates: LPS 10 ng/mL, read-out: Viability Cell (%) THP-1 LPS-Induced (10 ng/mL).
The mark [7] stands for this setting: without LPS, read-out: Viability Cell (%) THP-1 Without LPS.

As for `CC(=O)O[C@H]1[C@@H](O)[C@@]2(C)C3=CC[C@@H](c4ccoc4)[C@]3(C)CC[C@@H]2[C@@]2(C)C=CC(=O)C(C)(C)[C@H]12` [Compound 3, 6α-O-acetyl-7-deacetylnimocinol], the “Inhibition of SEAP release (NF-κB activity inhibition)” value in data set [1] was “significantly inhibited SEAP release”. Also, the “Effect on IL-6 level” value with IL-6 is on record as “significantly reduced”. Also, in the data set with IL-6, the IC50 (commonly the point on the concentration scale where inhibition reaches its midpoint) worked out at 3.06 µM. Also, in the data set on IL-6 (THP-1 CC50 / IL-6 IC50), the “IL-6 SI (selectivity index, CC50/IC50)” value is given as 6.63. Besides, the viability at 18 h, 20 µM in data set [2] (setting [4]) was 6.79 ± 6.22%; in data set [2] (setting [5]), 20.7 ± 3.08%. For the same compound, the viability at 18 h, 10 µM in data set [3] (setting [6]) and in data set [3] (setting [7]) was above 99.9% throughout. The 50% cytotoxic concentration (CC50) (in general, the concentration giving 50% cytotoxicity) at 18 h in data set [3] amounted to 20.3 µM.
As for `CC(=O)O[C@H]1[C@@H](OC(C)=O)[C@@]2(C)C3=CC[C@@H](c4ccoc4)[C@]3(C)CC[C@@H]2[C@@]2(C)C=CC(=O)C(C)(C)[C@H]12` [Compound 5, dysobinin], in data set [1], the “Inhibition of SEAP release (NF-κB activity inhibition)” value is given as “significantly inhibited SEAP release”. For the same compound, in the data set with IL-6, the “Effect on IL-6 level” value was “significantly reduced”. Moreover, the IC50 in the data set on IL-6 was 1.64 ± 0.97 µM. Further, the values for the viability at 18 h, 20 µM in data set [2] (setting [4]) and in data set [2] (setting [5]) were 23.6 ± 2.61% and 43.3 ± 6.02%, respectively. For the same compound, the viability at 18 h, 10 µM in data set [3] (setting [6]) is 52 ± 6.51%; in data set [3] (setting [7]), 66.7 ± 6.02%. Besides, in data set [3], the midpoint of cytotoxicity, the CC50 at 18 h, lay at 14.6 µM.
